US20230057930A1, “COMPOSITIONS FOR ALLEVIATING THE SYMPTOMS OF LOW ANTERIOR RESECTION SYNDROME BY TOPICAL ADMINISTRATION TO THE NEORECTUM” (RepoCeuticals A/S, priority 2020, published 2023)

Experiments:
[1] = Storage stability of melatonin in aqueous solution / formulation; assay type: physicochemical; conditions: shelf life
Procedure: Dimethyl sulfoxide (DMSO): DMSO ((CH3)2SO), molecular weight 78.1 g/mol, is a colorless polar aprotic solvent for both polar and nonpolar compounds and is completely miscible with water and a wide range of organic solvents. It is well known as a solvent or solubilizer for melatonin, as are also ethanol, glycerin and propylene glycol. […] On the other hand, the solubility of melatonin in water is limited to approximately 2 g/L at 20° C. […] DMSO penetrates the skin and other epithelia without damaging them and can carry other compounds dissolved in it into the underlying cells and tissues. DMSO has been used in human subjects as a topical analgesic, a vehicle for the topical application of pharmaceuticals e.g. as a component of a transdermal drug delivery systems, as an anti-inflammatory agent, and as an antioxidant. It is also used as a cryopreservative for sperm and oocytes in fertility treatments as well as for stem cells and modified lymphocytes for cellular therapies for cancer. […] While DMSO has been examined for the treatment of numerous conditions and ailments, its only use approved by the U.S. Food and Drug Administration (FDA) has been for the symptomatic treatment of interstitial cystitis, in which 50% (w/w) aqueous DMSO is instilled into the urinary bladder. […]

patients with LARS = conditions: cited from earlier work
rats = conditions: rat, cited from earlier work
human subjects = conditions: cited from earlier work
[2] = cited from earlier work

glycofurol
effect on decomposition of melatonin in aqueous solutions [1]: reduces the decomposition of melatonin

Cn1cc(C(=O)[C@@H]2CCc3nc[nH]c3C2)c2ccccc21 [ramosetron]
effect on symptoms of LARS (patients with LARS): alleviated the symptoms of urgency and reduced the number of bowel movements per day

C[S+](C)[O-] [DMSO, Dimethyl sulfoxide]
median 50% lethal oral dose (LD50 oral) relative to ethanol (rats; oral): twice as high as that of ethanol | effect on decomposition of melatonin in aqueous solutions [1]: prevents the decomposition of melatonin | adverse effects in patients (human subjects; intravenously, doses up to 1 g/kg/day): without evidence of adverse effects

COc1ccc2[nH]cc(CCNC(C)=O)c2c1 [Melatonin, N-acetyl-5-methoxytryptamine]
50% lethal oral dose (LD50 oral) (rats; in vivo, po): > 3200 mg/kg | solubility in water ([2]; 20° C.): approximately 2 g/L | solubility in DMSO ([2]; room temperature (20 or 25° C.)): ≥ 232 mg/mL | adverse effects in human subjects (human subjects; gram amounts oral per day for prolonged periods): without apparent adverse effects
